According to patent publication US6903218B2, “Sulfonamide substituted chroman derivatives” (Bayer Pharmaceuticals Corporation, priority 1997, dated 2005):

Row | SMILES | melting point
1 | Nc1ccc([C@@H](O)CNC[C@@H]2CCc3cc(S(=O)(=O)Nc4ccc(-n5nnn(CCCC6CCCC6)c5=O)cc4)ccc3O2)cn1 | 99.3 to 99.7 °C
2 | Nc1ccc([C@@H](O)CNCC2CCc3cc(S(=O)(=O)Nc4ccc(Cl)cc4)ccc3O2)cn1 (stereo in doubt) | 95 °C (dec.)
3 | O=c1n(CCCC2CCCC2)nnn1-c1ccc(NS(=O)(=O)c2ccc3c(c2)CCC(CNC[C@H](O)c2cccnc2)O3)cc1 (stereo partly shown) (hydrate or solvate) | 93 to 95 °C
4 | O=c1n(CCCC2CCCC2)nnn1-c1ccc(NS(=O)(=O)c2ccc3c(c2)CCC(CN(C[C@H](O)c2cccc(Cl)c2)C[C@H](O)c2cccc(Cl)c2)O3)cc1 (stereo partly shown) (hydrate or solvate) | 110 to 115 °C (dec.)
5 | CC(C)c1ccc(NS(=O)(=O)c2ccc3c(c2)CCC(CNC[C@H](O)c2cccnc2)O3)cc1 (stereo in doubt) (hydrate or solvate) | 104 to 106 °C
6 | Nc1ccc([C@@H](O)CNC[C@H]2CCc3cc(NS(=O)(=O)c4ccc(-n5nnn(CCCC6CCCCC6)c5=O)cc4)ccc3O2)cn1 | 94 to 95 °C
7 | O=c1n(CCCC2CCCC2)ccn1-c1ccc(NS(=O)(=O)c2ccc3c(c2)CCC(CNC[C@H](O)c2cccnc2)O3)cc1 (stereo in doubt) | 90 to 92 °C
